Results published in patent publication US6573259B2, “Inhibitors of interleukin-1β converting enzyme” (Vertex Pharmaceuticals Incorporated, priority 1996, dated 2003).

What was measured:
[1] = system: Human Peripheral Blood Mononuclear Cells (PBMC); assay: PBMC cell assay (IL-1β assay with human PBMC, LPS stimulated, ELISA); type: cell-based; conditions: LPS 5 ng/ml, 16-18 hr
Excerpt: IL-L1β Assay with a Mixed Population of Human Peripheral Blood Mononuclear Cells (PBMC) or Enriched Adherent Mononuclear Cells
Processing of pre-IL-1β by ICE can be measured in cell culture using a variety of cell sources. Human PBMC obtained from healthy donors provides a mixed population of lymphocyte subtypes and mononuclear cells that produce a spectrum of interleukins and cytokines in response to many classes of physiological stimulators. Adherent mononuclear cells from PBMC provides an enriched source of normal monocytes for selective studies of cytokine production by activated cells.
An initial dilution series of test compound in DMSO or ethanol is prepared, with a subsequent dilution into RPMI-10% FBS media (containing 2 mM L-glutamine, 10 mM HEPES, 50 U and 50 ug/ml pen/strep) respectively to yield drugs at 4× the final test concentration containing 0.4% DMSO or 0.4% ethanol. The final concentration of DMSO is 0.1% for all drug dilutions. A concentration titration which brackets the apparent Ki for a test compound determined in an ICE inhibition assay is generally used for the primary compound screen.
Generally 5-6 compound dilutions are tested and the cellular component of the assay is performed in duplicate, with duplicate ELISA determinations on each cell culture supernatant.
Buffy coat cells isolated from one pint human blood (yielding 40-45 ml final volume plasma plus cells) are diluted with media to 80 ml and LeukoPREP separation tubes (Becton Dickinson) are each overlaid with 10 ml of cell suspension. After 15 min centrifugation at 1500-1800 xg, the plasma/media layer is aspirated and then the mononuclear cell layer is collected with a Pasteur pipette and transferred to a 15 ml conical centrifuge tube (Corning). […] The PBMC pellet is resuspended in a small volume of media, the cells are counted and adjusted to 6×10^6 cells/ml. […]
The skilled practitioner realizes that values obtained in cell assays, such as those described herein, can depend on multiple factors. The values may not necessarily represent fine quantitative results.

[2] = system: Human whole blood; assay: Whole blood assay for IL-1β production; type: cell-based; conditions: 16-18 hr
Protocol: Whole Blood Assay for IL-1β Production
The whole blood assay is a simple method for measuring the production of IL-1β (or other cytokines) and the activity of potential inhibitors. The complexity of this assay system, with its full complement of lymphoid and inflammatory cell types, spectrum of plasma proteins and red blood cells is an ideal in vitro representation of human in vivo physiologic conditions.
Set incubator or water bath at 30° C. Aliquot 0.25 ml of blood into 1.5 ml eppendorf tubes, making sure to invert the whole blood sample tubes after every two aliquots. Differences in replicates may result if the cells sediment and are not uniformly suspended. Use of a positive displacement pipette will also minimize differences between replicate aliquots.
Prepare drug dilutions in sterile pyrogen-free saline by serial dilution. A dilution series which brackets the apparent Ki for a test compound determined in an ICE inhibition assay is generally used for the primary compound screen. For extremely hydrophobic compounds, prepare compound dilutions in fresh plasma obtained from the same blood donor or in PBS-containing 5% DMSO to enhance solubility.
Add 25 μl test compound dilution or vehicle control and gently mix the sample. Then add 5.0 μl LPS solution (250 ng/ml stocked prepared fresh: 5.0 ng/ml final concentration LPS), and mix again. Incubate the tubes at […] in a water bath for 16-18 hr with occasional mixing. Alternatively, the tubes can be placed in a rotator set at 4 rpm for the same incubation period. This assay should be set up in duplicate or triplicate with the following controls: negative control—no LPS; positive control—no test inhibitor; vehicle control—the highest concentration of DMSO or compound solvent used in the experiment. Additional saline is added to all control tubes to normalize volumes for both control and experimental whole blood test samples.
After the incubation period, whole blood samples are centrifuged for 10 minutes at ˜2000 rpm in the microfuge, plasma is transferred to a fresh microfuge tube and centrifuged at 1000×g to pellet residual platelets if necessary. Plasma samples may be stored frozen at −70° C. prior to assay for cytokine levels by ELISA.
R & D Systems (614 McKinley Place N.E. Minneapolis, Minn. 55413) Quantikine kits may be used for measurement of IL-1β and TNF-α. The assays are performed according to the manufacturer's directions. IL-1β levels of ˜1-5 ng/ml in positive controls among a range of individuals may be observed. A 1:200 dilution of plasma for all samples is usually sufficient for experiments for ELISA results to fall on the linear range of the ELISA standard curves. It may be necessary to optimize standard dilutions if you observe differences in the whole blood assay. Nerad, J. L. et al., J. Leukocyte Biol., 52, pp. 687-692 (1992).

[3] = Table 4, mature IL-1β in supernatant

SMILES | IC50 ([2]; Table 2, LPS 5.0 ng/ml) [µM] | IC50 ([2]; Table 4, LPS 5.0 ng/ml) [µM] | also measured
O=C[C@H](CC(=O)O)NC(=O)CN1C(=O)C(NC(=O)OCc2ccccc2)N=C(c2ccccc2)c2ccccc21 (stereo partly drawn) [Example 1, (3S)-3-[3(R,S)-1,3-Dihydro-2-oxo-5-phenyl((benzyloxycarbonyl)amino)-2H-1,4-benzodiazepin-1-acetylamino]-4-oxobutyric acid] | – | – | IC50 ([1]; Table 2, mature IL-1β in supernatant): 20 µM
Nc1c(Cl)cc(C(=O)NC2N=C(c3ccccc3)c3ccccc3N(CC(=O)N[C@H](C=O)CC(=O)O)C2=O)cc1Cl (some centres unmarked) [Example 7] | > 20 | – | –
O=C[C@H](CC(=O)O)NC(=O)CN1C(=O)C(NC(=O)c2nccc3ccccc23)N=C(c2ccccc2)c2ccccc21 (some centres unmarked) [Example 11] | – | 9 | –
Nc1ccc(C(=O)NC2N=C(c3ccccc3)c3ccccc3N(CC(=O)N[C@H](C=O)CC(=O)O)C2=O)cc1Cl (some centres unmarked) [Example 18] | > 20 | – | –
Cc1cc(C(=O)NC2N=C(c3ccccc3)c3ccccc3N(CC(=O)N[C@H](C=O)CC(=O)O)C2=O)cc(C)c1O (some centres unmarked) [Example 19] | 10 | – | –
O=C[C@H](CC(=O)O)NC(=O)CN1C(=O)C(NC(=O)c2cc(Cl)c(O)c(Cl)c2)N=C(c2ccccc2)c2ccccc21 (some centres unmarked) [Example 21] | 10 | – | –
COc1ccc(Cl)cc1S(=O)(=O)NC1N=C(c2ccccc2)c2ccccc2N(CC(=O)N[C@H](C=O)CC(=O)O)C1=O (some centres unmarked) [Example 39] | – | > 20 | –
COc1cccc(OC)c1C(=O)C(=O)NC1N=C(c2ccccc2)c2ccccc2N(CC(=O)N[C@H](C=O)CC(=O)O)C1=O (some centres unmarked) [Example 49] | – | – | IC50 [1, 3]: > 8 µM
O=C[C@H](CC(=O)O)NC(=O)CN1C(=O)C(NC(=O)c2ccc(O)c(Cl)c2)N=C(c2ccccc2)c2ccccc21 (some centres unmarked) [Example 50] | – | – | IC50 [1, 3]: > 8 µM
Cc1cc(C(=O)NC2N=C(c3ccccc3)c3cc(NC=O)ccc3N(CC(=O)N[C@H](C=O)CC(=O)O)C2=O)cc(C)c1O (some centres unmarked) [Example 58] | – | > 20 | –
Cc1cc(C(=O)NC2N=C(c3ccccc3)c3cc(N)ccc3N(CC(=O)N[C@H](C=O)CC(=O)O)C2=O)cc(C)c1O (some centres unmarked) [Example 59] | – | 9.2 | –
